pIC50: −log10 of the molar value.
How the values were obtained:
[1] = biological target: Proto-oncogene tyrosine-protein kinase Src (Homo sapiens, UniProt P12931); experiment: Inhibition of c-Src using AEEEIYGEFEAKKKK substrate by fluorescence intensity assay
SK-OV-3 = experiment: Anticancer activity against human SKOV3 cells assessed as inhibition of cell proliferation at 50 uM after 72 hrs relative to control; type: functional; details: SK-OV-3, 72 h
HT-29 = experiment: Anticancer activity against human HT-29 cells assessed as inhibition of cell proliferation at 50 uM after 72 hrs relative to control; type: functional; details: HT-29, 72 h

Sequence of Proto-oncogene tyrosine-protein kinase Src (P12931 2-536 limits assumed): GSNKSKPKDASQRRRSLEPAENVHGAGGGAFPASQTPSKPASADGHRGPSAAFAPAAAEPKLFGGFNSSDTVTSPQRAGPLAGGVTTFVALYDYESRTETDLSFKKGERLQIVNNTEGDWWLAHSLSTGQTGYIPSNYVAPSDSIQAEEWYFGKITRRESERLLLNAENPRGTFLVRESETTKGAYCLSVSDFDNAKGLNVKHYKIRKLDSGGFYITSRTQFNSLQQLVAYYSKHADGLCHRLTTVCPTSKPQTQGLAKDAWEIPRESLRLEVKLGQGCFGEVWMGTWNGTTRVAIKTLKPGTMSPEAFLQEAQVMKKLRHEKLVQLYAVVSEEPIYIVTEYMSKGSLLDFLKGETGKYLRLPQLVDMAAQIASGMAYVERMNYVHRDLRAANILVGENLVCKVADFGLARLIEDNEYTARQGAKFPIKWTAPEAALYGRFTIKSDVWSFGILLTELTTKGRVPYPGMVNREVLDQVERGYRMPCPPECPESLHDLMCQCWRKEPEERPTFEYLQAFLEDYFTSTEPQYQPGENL

Row | SMILES | pIC50 [1] | inhibition at 50 µM (SK-OV-3) [%] | inhibition at 50 µM (HT-29) [%]
1 | COc1ccc(C(c2c[nH]c3ccccc23)N(C)c2ccccc2)cc1 (configuration not stated) | < 3.82 | – | –
2 | CN(c1ccccc1)C(c1ccc(Cl)cc1)c1c[nH]c2ccccc12 (configuration not stated) | < 3.82 | 72 | –
3 | CN(c1ccccc1)C(c1ccccc1)c1c[nH]c2ccccc12 (configuration not stated) | 4.30 | 55 | –
4 | CN(c1ccccc1)C(c1ccccc1)c1cn(C)c2ccccc12 (configuration not stated) | < 3.82 | – | –
5 | COc1ccc(C(c2c[nH]c3ccccc23)N(C)c2ccccc2)c(OC)c1 (configuration not stated) | < 3.82 | – | –
6 | COc1ccc2[nH]cc(C(c3ccc(Cl)cc3)N(C)c3ccccc3)c2c1 (configuration not stated) | 4.06 | 77 | –
7 | Cc1ccc(C(c2c[nH]c3ccc(Br)cc23)N(C)c2ccccc2)cc1 (configuration not stated) | < 3.82 | 70 | 70
8 | CN(c1ccccc1)C(c1ccc(O)cc1)c1c[nH]c2ccccc12 (configuration not stated) | < 3.82 | – | –
9 | CN(c1ccccc1)C(c1ccc(O)c(Br)c1)c1c[nH]c2ccccc12 (configuration not stated) | < 3.82 | – | –
10 | Cc1ccc(C(c2cn(C)c3ccccc23)N(C)c2ccccc2)cc1 (configuration not stated) | 4.22 | – | –
11 | COc1ccc(C(c2c[nH]c3ccc(Br)cc23)N(C)c2ccccc2)cc1 (configuration not stated) | 3.97 | 70 | 70
12 | COc1ccc2[nH]cc(C(c3ccc(C)cc3)N(C)c3ccccc3)c2c1 (configuration not stated) | < 3.82 | 70 | 70
13 | COc1cccc(C(c2c[nH]c3ccccc23)N(C)c2ccccc2)c1 (configuration not stated) | < 3.82 | – | –
14 | CN(c1ccccc1)C(c1cccc([N+](=O)[O-])c1)c1c[nH]c2ccccc12 (configuration not stated) | 4.23 | – | –
15 | Cc1ccc(C(c2c[nH]c3ccccc23)N(C)c2ccccc2)cc1 (configuration not stated) | < 3.82 | – | –
16 | CN(c1ccccc1)C(c1ccc(Cl)cc1)c1cn(C)c2ccccc12 (configuration not stated) | 4.01 | – | –
17 | CN(c1ccccc1)C(c1ccccc1)c1c[nH]c2ccc(Br)cc12 (configuration not stated) | 4.15 | – | –
18 | COc1ccc(C(c2c[nH]c3ccc(OC)cc23)N(C)c2ccccc2)cc1 (configuration not stated) | 4.00 | – | –

Source: ChEMBL document CHEMBL1777676, “3-substitued indoles: one-pot synthesis and evaluation of anticancer and Src kinase inhibitory activities” (Bioorg Med Chem Lett, 2011)
